In patent US20230172206A1 (BASF SE, priority 2020, published 2023):

Test system: Phakopsora pachyrhizi (F129L)
Assay: Protective control of soybean rust on soybeans (PHAKPA P2)
Assay type: in vivo
Details: protective P2, 4 ppm, soybean rust F129L isolate

Compound | % PHAKPA (F129L) Disease level P2 at 4 ppm
CNC(=O)/C(=N/OC)c1cccc(C)c1CO/N=C(\C)c1c(F)cccc1C(F)(F)F [compound 345] | 22%
CNC(=O)/C(=N/OC)c1cccc(C)c1CO/N=C(\C)c1c(F)ccc(F)c1OC(F)(F)F [compound 346] | 4%
CNC(=O)/C(=N/OC)c1cccc(C)c1CO/N=C(\C)c1ccc(OC(F)(F)F)cc1OC(F)(F)F [compound 349] | 97%
CNC(=O)/C(=N/OC)c1cccc(C)c1CO/N=C(\C)c1cccc(F)c1OC(F)(F)F [compound 354] | 17%
CNC(=O)/C(=N/OC)c1cccc(C)c1CO/N=C(\C)c1c(F)cc(Br)cc1OC(F)(F)F [compound 355] | 34%
CNC(=O)/C(=N/OC)c1cccc(C)c1CO/N=C(\C)c1c(F)cc(F)cc1C(F)(F)F [compound 357] | 13%
CNC(=O)/C(=N/OC)c1cccc(C)c1CO/N=C(\C)c1c(F)cc(Br)cc1C(F)(F)F [compound 358] | 77%
CNC(=O)/C(=N/OC)c1cccc(C)c1CO/N=C(\C)c1c(F)ccc(F)c1C(F)(F)F [compound 359] | 100%
CO/N=C(/C(=O)OC)c1cccc(C)c1CO/N=C(\C)c1c(F)cc(F)cc1C(F)(F)F [compound 360] | 53%
CO/N=C(/C(=O)OC)c1cccc(C)c1CO/N=C(\C)c1c(F)cc(F)cc1OC(F)(F)F [compound 361] | 80%
CNC(=O)/C(=N/OC)c1cccc(C)c1CO/N=C(\C)c1ccc(OC(F)(F)F)cc1C(F)(F)F [compound 363] | 29%
CO/N=C(/C(=O)OC)c1cccc(C)c1CO/N=C(\C)c1c(F)cccc1C(F)(F)F [compound 365] | 77%
CO/N=C(/C(=O)OC)c1cccc(C)c1CO/N=C(\C)c1c(F)ccc(F)c1OC(F)(F)F [compound 366] | 53%

Same assay, conditions: protective P2, 16 ppm, soybean rust F129L isolate

Compound | % PHAKPA (F129L) Disease level P2 at 16 ppm
CNC(=O)/C(=N/OC)c1cccc(C)c1CO/N=C(\C)c1c(F)cccc1C(F)(F)F [compound 345] | 1%
CNC(=O)/C(=N/OC)c1cccc(C)c1CO/N=C(\C)c1c(F)ccc(F)c1OC(F)(F)F [compound 346] | 0%
CNC(=O)/C(=N/OC)c1cccc(C)c1CO/N=C(\C)c1ccc(OC(F)(F)F)cc1OC(F)(F)F [compound 349] | 50%
CNC(=O)/C(=N/OC)c1cccc(C)c1CO/N=C(\C)c1cccc(F)c1OC(F)(F)F [compound 354] | 2%
CNC(=O)/C(=N/OC)c1cccc(C)c1CO/N=C(\C)c1c(F)cc(Br)cc1OC(F)(F)F [compound 355] | 7%
CNC(=O)/C(=N/OC)c1cccc(C)c1CO/N=C(\C)c1c(F)cc(F)cc1C(F)(F)F [compound 357] | 1%
CNC(=O)/C(=N/OC)c1cccc(C)c1CO/N=C(\C)c1c(F)cc(Br)cc1C(F)(F)F [compound 358] | 17%
CNC(=O)/C(=N/OC)c1cccc(C)c1CO/N=C(\C)c1c(F)ccc(F)c1C(F)(F)F [compound 359] | 37%
CO/N=C(/C(=O)OC)c1cccc(C)c1CO/N=C(\C)c1c(F)cc(F)cc1C(F)(F)F [compound 360] | 9%
CO/N=C(/C(=O)OC)c1cccc(C)c1CO/N=C(\C)c1c(F)cc(F)cc1OC(F)(F)F [compound 361] | 18%
CNC(=O)/C(=N/OC)c1cccc(C)c1CO/N=C(\C)c1ccc(OC(F)(F)F)cc1C(F)(F)F [compound 363] | 1%
CO/N=C(/C(=O)OC)c1cccc(C)c1CO/N=C(\C)c1c(F)cccc1C(F)(F)F [compound 365] | 15%
CO/N=C(/C(=O)OC)c1cccc(C)c1CO/N=C(\C)c1c(F)ccc(F)c1OC(F)(F)F [compound 366] | 13%

Test system: Phakopsora pachyrhizi (F129L)
Assay: Protective control of soybean rust on soybeans (PHAKPA P6)
Assay type: in vivo
Details: protective P6, 4 ppm, soybean rust F129L isolate

Compound | % PHAKPA (F129L) Disease level P6 at 4 ppm
CNC(=O)/C(=N/OC)c1cccc(C)c1CO/N=C(\C)c1c(F)cccc1C(F)(F)F [compound 345] | 32%
CNC(=O)/C(=N/OC)c1cccc(C)c1CO/N=C(\C)c1c(F)ccc(F)c1OC(F)(F)F [compound 346] | 5%
CNC(=O)/C(=N/OC)c1cccc(C)c1CO/N=C(\C)c1ccc(OC(F)(F)F)cc1OC(F)(F)F [compound 349] | 97%
CNC(=O)/C(=N/OC)c1cccc(C)c1CO/N=C(\C)c1cccc(F)c1OC(F)(F)F [compound 354] | 21%
CNC(=O)/C(=N/OC)c1cccc(C)c1CO/N=C(\C)c1c(F)cc(Br)cc1OC(F)(F)F [compound 355] | 48%
CNC(=O)/C(=N/OC)c1cccc(C)c1CO/N=C(\C)c1c(F)cc(F)cc1C(F)(F)F [compound 357] | 18%
CNC(=O)/C(=N/OC)c1cccc(C)c1CO/N=C(\C)c1c(F)cc(Br)cc1C(F)(F)F [compound 358] | 83%
CNC(=O)/C(=N/OC)c1cccc(C)c1CO/N=C(\C)c1c(F)ccc(F)c1C(F)(F)F [compound 359] | 100%
CO/N=C(/C(=O)OC)c1cccc(C)c1CO/N=C(\C)c1c(F)cc(F)cc1C(F)(F)F [compound 360] | 80%
CO/N=C(/C(=O)OC)c1cccc(C)c1CO/N=C(\C)c1c(F)cc(F)cc1OC(F)(F)F [compound 361] | 88%
CNC(=O)/C(=N/OC)c1cccc(C)c1CO/N=C(\C)c1ccc(OC(F)(F)F)cc1C(F)(F)F [compound 363] | 25%
CO/N=C(/C(=O)OC)c1cccc(C)c1CO/N=C(\C)c1c(F)cccc1C(F)(F)F [compound 365] | 97%
CO/N=C(/C(=O)OC)c1cccc(C)c1CO/N=C(\C)c1c(F)ccc(F)c1OC(F)(F)F [compound 366] | 83%

Same assay, conditions: protective P6, 16 ppm, soybean rust F129L isolate

Compound | % PHAKPA (F129L) Disease level P6 at 16 ppm
CNC(=O)/C(=N/OC)c1cccc(C)c1CO/N=C(\C)c1c(F)cccc1C(F)(F)F [compound 345] | 1%
CNC(=O)/C(=N/OC)c1cccc(C)c1CO/N=C(\C)c1c(F)ccc(F)c1OC(F)(F)F [compound 346] | 0%
CNC(=O)/C(=N/OC)c1cccc(C)c1CO/N=C(\C)c1ccc(OC(F)(F)F)cc1OC(F)(F)F [compound 349] | 35%
CNC(=O)/C(=N/OC)c1cccc(C)c1CO/N=C(\C)c1cccc(F)c1OC(F)(F)F [compound 354] | 4%
CNC(=O)/C(=N/OC)c1cccc(C)c1CO/N=C(\C)c1c(F)cc(Br)cc1OC(F)(F)F [compound 355] | 4%
CNC(=O)/C(=N/OC)c1cccc(C)c1CO/N=C(\C)c1c(F)cc(F)cc1C(F)(F)F [compound 357] | 0%
CNC(=O)/C(=N/OC)c1cccc(C)c1CO/N=C(\C)c1c(F)cc(Br)cc1C(F)(F)F [compound 358] | 18%
CNC(=O)/C(=N/OC)c1cccc(C)c1CO/N=C(\C)c1c(F)ccc(F)c1C(F)(F)F [compound 359] | 43%
CO/N=C(/C(=O)OC)c1cccc(C)c1CO/N=C(\C)c1c(F)cc(F)cc1C(F)(F)F [compound 360] | 5%
CO/N=C(/C(=O)OC)c1cccc(C)c1CO/N=C(\C)c1c(F)cc(F)cc1OC(F)(F)F [compound 361] | 31%
CNC(=O)/C(=N/OC)c1cccc(C)c1CO/N=C(\C)c1ccc(OC(F)(F)F)cc1C(F)(F)F [compound 363] | 2%
CO/N=C(/C(=O)OC)c1cccc(C)c1CO/N=C(\C)c1c(F)cccc1C(F)(F)F [compound 365] | 43%
CO/N=C(/C(=O)OC)c1cccc(C)c1CO/N=C(\C)c1c(F)ccc(F)c1OC(F)(F)F [compound 366] | 12%
